The source made the active and inactive calls. No cut-off for these calls is given here.
Key:
Mus musculus [1] = test: Hypolipidemic activity in TritonWR1339-induced hyperlipidemic Kunming mouse model assessed as reduction in plasma TG level at 0.362 mmol/kg, ig administered for 7 days; type: functional; details: po, 168 h, time 7 day
[2] = Hepatotoxicity in Kunming mouse assessed as hepatocyte swelling at 412 mg/kg, ig for 1 month by H and E staining based analysis; type: toxicity, organism-based; details: in vivo, po, 730 h, time 1 months
[3] = Hepatotoxicity in Kunming mouse assessed as cell infiltration in central vein and inflammatory cell infiltration at 412 mg/kg, ig for 1 month by H and E staining based analysis; type: toxicity, organism-based; details: in vivo, po, 730 h, time 1 months
[4] = Hepatotoxicity in Kunming mouse assessed as induction of oxidative stress by measuring increase in plasma MDA level at 412 mg/kg, ig for 1 month; type: toxicity, organism-based; details: in vivo, po, 730 h, time 1 months
[5] = Hepatotoxicity in Kunming mouse assessed as increase in plasma total protein level at 412 mg/kg, ig for 1 month; type: toxicity, organism-based; details: in vivo, po, 730 h, time 1 months
[6] = Acute toxicity in Kunming mouse assessed as change in body weight at 412 mg/kg, ig for 1 month; type: organism-based; details: in vivo, po, 730 h, time 1 months
[7] = Hepatotoxicity in Kunming mouse assessed as induction of oxidative stress by measuring decrease in plasma CAT level at 412 mg/kg, ig for 1 month; type: toxicity, organism-based; details: in vivo, po, 730 h, time 1 months
Mus musculus [8] = test: Upregulation of HO-1 protein expression in Kunming mouse liver at 412 mg/kg, ig for 1 month by western blot analysis; type: functional, organism-based; details: time 1.0 months
Mus musculus [9] = test: Upregulation of Nrf2 protein expression in Kunming mouse liver nucleus at 412 mg/kg, ig for 1 month by western blot analysis; type: functional, organism-based; details: time 1.0 months
[10] = Hepatotoxicity in Kunming mouse assessed as induction of inflammatory response by measuring upregulation of TNF-alpha level in liver at 412 mg/kg, ig for 1 month by western blot analysis; type: toxicity, organism-based; details: in vivo, po, 730 h, time 1 months
[11] = Hepatotoxicity in Kunming mouse assessed as increase in plasma alkaline phosphatase level at 412 mg/kg, ig for 1 month; type: toxicity, organism-based; details: in vivo, po, 730 h, time 1 months
[12] = Hepatotoxicity in Kunming mouse assessed as induction of oxidative stress by measuring decrease in plasma superoxide dismutase level at 412 mg/kg, ig for 1 month; type: toxicity, organism-based; details: in vivo, po, 730 h, time 1 months
[13] = Hepatotoxicity in Kunming mouse assessed as increase in plasma alanine aminotransferase level at 412 mg/kg, ig for 1 month; type: toxicity, organism-based; details: in vivo, po, 730 h, time 1 months
Mus musculus [14] = test: Hypolipidemic activity in TritonWR1339-induced hyperlipidemic Kunming mouse model assessed as reduction in plasma TC level at 0.362 mmol/kg, ig administered for 7 days; type: functional; details: po, 168 h, time 7 day
[15] = Hepatotoxicity in Kunming mouse assessed as increase in plasma aspartate transaminase level at 412 mg/kg, ig for 1 month; type: toxicity, organism-based; details: in vivo, po, 730 h, time 1 months
[16] = Hepatotoxicity in Kunming mouse assessed as induction of inflammatory response by measuring upregulation of IL-6 level in liver at 412 mg/kg, ig for 1 month by western blot analysis; type: toxicity, organism-based; details: in vivo, po, 730 h, time 1 months
[17] = Hepatotoxicity in Kunming mouse assessed as increase in liver coefficient at 412 mg/kg, ig for 1 month; type: toxicity, organism-based; details: in vivo, po, 730 h, time 1 months
[18] = Hepatotoxicity in Kunming mouse assessed as increase in hepatic weight at 412 mg/kg, ig for 1 month; type: toxicity, organism-based; details: in vivo, po, 730 h, time 1 months
[19] = Hepatotoxicity in Kunming mouse assessed as induction of oxidative stress by measuring decrease in plasma GSH level at 412 mg/kg, ig for 1 month; type: toxicity, organism-based; details: in vivo, po, 730 h, time 1 months
[20] = Upregulation of p-NF-kB-p65 protein expression in Kunming mouse liver at 412 mg/kg, ig for 1 month by western blot analysis; type: ADME, organism-based; details: in vivo, po, 730 h, time 1 months
[21] = Hepatotoxicity in Kunming mouse assessed as induction of inflammatory response by measuring upregulation of IL-6 level in liver at 300 mg/kg, ig for 1 month by western blot analysis; type: toxicity, organism-based; details: in vivo, po, 730 h, time 1 months
[22] = Hepatotoxicity in Kunming mouse assessed as large areas of hepatocyte swelling, necrosis, loose cytoplasm, nuclear degeneration and dissolution at 300 mg/kg, ig for 1 month by H and E staining based analysis; type: toxicity, organism-based; details: in vivo, po, 730 h, time 1 months
[23] = Hepatotoxicity in Kunming mouse assessed as increase in plasma aspartate transaminase level at 300 mg/kg, ig for 1 month; type: toxicity, organism-based; details: in vivo, po, 730 h, time 1 months
[24] = Hepatotoxicity in Kunming mouse assessed as induction of oxidative stress by measuring decrease in plasma superoxide dismutase level at 300 mg/kg, ig for 1 month; type: toxicity, organism-based; details: in vivo, po, 730 h, time 1 months
[25] = Hepatotoxicity in Kunming mouse assessed as increase in liver coefficient at 300 mg/kg, ig for 1 month; type: toxicity, organism-based; details: in vivo, po, 730 h, time 1 months
[26] = Hepatotoxicity in Kunming mouse assessed as induction of inflammatory response by measuring upregulation of TNF-alpha level in liver at 300 mg/kg, ig for 1 month by western blot analysis; type: toxicity, organism-based; details: in vivo, po, 730 h, time 1 months
[27] = Hepatotoxicity in Kunming mouse assessed as increase in hepatic weight at 300 mg/kg, ig for 1 month; type: toxicity, organism-based; details: in vivo, po, 730 h, time 1 months
Mus musculus [28] = test: Upregulation of HO-1 protein expression in Kunming mouse liver at 300 mg/kg, ig for 1 month by western blot analysis; type: functional, organism-based; details: time 1.0 months
Mus musculus [29] = test: Upregulation of Nrf2 protein expression in Kunming mouse liver nucleus at 300 mg/kg, ig for 1 month by western blot analysis; type: functional, organism-based; details: time 1.0 months
[30] = Hepatotoxicity in Kunming mouse assessed as induction of oxidative stress by measuring decrease in plasma GSH level at 300 mg/kg, ig for 1 month; type: toxicity, organism-based; details: in vivo, po, 730 h, time 1 months
[31] = Hepatotoxicity in Kunming mouse assessed as cell infiltration in central vein and inflammatory cell infiltration at 300 mg/kg, ig for 1 month by H and E staining based analysis; type: toxicity, organism-based; details: in vivo, po, 730 h, time 1 months
[32] = Hepatotoxicity in Kunming mouse assessed as increase in plasma total protein level at 300 mg/kg, ig for 1 month; type: toxicity, organism-based; details: in vivo, po, 730 h, time 1 months
[33] = Hepatotoxicity in Kunming mouse assessed as increase in plasma alkaline phosphatase level at 300 mg/kg, ig for 1 month; type: toxicity, organism-based; details: in vivo, po, 730 h, time 1 months
[34] = Upregulation of p-NF-kB-p65 protein expression in Kunming mouse liver at 300 mg/kg, ig for 1 month by western blot analysis; type: ADME, organism-based; details: in vivo, po, 730 h, time 1 months
[35] = Acute toxicity in Kunming mouse assessed as change in body weight at 300 mg/kg, ig for 1 month; type: organism-based; details: in vivo, po, 730 h, time 1 months
[36] = Hepatotoxicity in Kunming mouse assessed as increase in plasma alanine aminotransferase level at 300 mg/kg, ig for 1 month; type: toxicity, organism-based; details: in vivo, po, 730 h, time 1 months
[37] = Hepatotoxicity in Kunming mouse assessed as induction of oxidative stress by measuring decrease in plasma CAT level at 300 mg/kg, ig for 1 month; type: toxicity, organism-based; details: in vivo, po, 730 h, time 1 months
[38] = Hepatotoxicity in Kunming mouse assessed as induction of oxidative stress by measuring increase in plasma MDA level at 300 mg/kg, ig for 1 month; type: toxicity, organism-based; details: in vivo, po, 730 h, time 1 months

**Q.** With `CC(C)(Oc1ccc(Cl)cc1)C(=O)Oc1ccc2c(c1)OCO2` as the molecule, how does the inhibition in vivo at 362 µmol/kg (Mus musculus [1]) read?
**A.** The inhibition in vivo at 362 µmol/kg was 38.6%.

**Q.** What about the Activity [2] of the same molecule?
**A.** The Activity was “Toxic”.

**Q.** And the Activity [3]?
**A.** The Activity was “Non-Toxic”.

**Q.** And the Activity [4]?
**A.** Its Activity is “Non-Toxic”.

**Q.** What about the Activity [5] of the same molecule?
**A.** Its Activity is “Non-Toxic”.

**Q.** What about the Activity [6] of the same molecule?
**A.** Its Activity is “Non-Toxic”.

**Q.** And the Activity [7]?
**A.** The Activity was “Non-Toxic”.

**Q.** What about the Activity (Mus musculus [8]) of the same molecule?
**A.** Its Activity is “Active”.

**Q.** And the Activity (Mus musculus [9])?
**A.** The Activity was “Active”.

**Q.** What about the Activity [10] of the same molecule?
**A.** Its Activity is “Non-Toxic”.

**Q.** And the Activity [11]?
**A.** Its Activity is “Non-Toxic”.

**Q.** What about the Activity [12] of the same molecule?
**A.** The Activity was “Non-Toxic”.

**Q.** What about the Activity [13] of the same molecule?
**A.** Its Activity is “Non-Toxic”.

**Q.** What about the inhibition in vivo at 362 µmol/kg (Mus musculus [14]) of the same molecule?
**A.** The inhibition in vivo at 362 µmol/kg was 35.1%.

**Q.** And the Activity [15]?
**A.** The Activity was “Non-Toxic”.

**Q.** And the Activity [16]?
**A.** The Activity was “Non-Toxic”.

**Q.** And the Activity [17]?
**A.** Its Activity is “Non-Toxic”.

**Q.** And the Activity [18]?
**A.** The Activity was “Non-Toxic”.

**Q.** What about the Activity [19] of the same molecule?
**A.** Its Activity is “Toxic”.

**Q.** And the Activity [20]?
**A.** Its Activity is “Non-Toxic”.

**Q.** With `CCOC(=O)C(C)(C)Oc1ccc(Cl)cc1` [CLOFIBRATE] as the molecule, how does the Activity [21] read?
**A.** The Activity was “Toxic”.

**Q.** And the Activity [22]?
**A.** The Activity was “Toxic”.

**Q.** What about the inhibition in vivo at 362 µmol/kg (Mus musculus [1]) of the same molecule?
**A.** Its inhibition in vivo at 362 µmol/kg is 25.5%.

**Q.** And the Activity [23]?
**A.** The Activity was “Toxic”.

**Q.** What about the Activity [24] of the same molecule?
**A.** The Activity was “Toxic”.

**Q.** What about the Activity [25] of the same molecule?
**A.** Its Activity is “Toxic”.

**Q.** And the Activity [26]?
**A.** Its Activity is “Toxic”.

**Q.** And the Activity [27]?
**A.** Its Activity is “Toxic”.

**Q.** What about the Activity (Mus musculus [28]) of the same molecule?
**A.** The Activity was “inactive”.

**Q.** And the Activity (Mus musculus [29])?
**A.** The Activity was “inactive”.

**Q.** And the Activity [30]?
**A.** Its Activity is “Toxic”.

**Q.** What about the Activity [31] of the same molecule?
**A.** The Activity was “Toxic”.

**Q.** And the Activity [32]?
**A.** Its Activity is “Toxic”.

**Q.** What about the Activity [33] of the same molecule?
**A.** Its Activity is “Toxic”.

**Q.** And the inhibition in vivo at 362 µmol/kg (Mus musculus [14])?
**A.** Its inhibition in vivo at 362 µmol/kg is 21.2%.

**Q.** And the Activity [34]?
**A.** The Activity was “Toxic”.

**Q.** What about the Activity [35] of the same molecule?
**A.** The Activity was “Non-Toxic”.

**Q.** What about the Activity [36] of the same molecule?
**A.** The Activity was “Toxic”.

**Q.** And the Activity [37]?
**A.** Its Activity is “Toxic”.

**Q.** What about the Activity [38] of the same molecule?
**A.** The Activity was “Toxic”.

Reference: ChEMBL document CHEMBL4808189, “The combination of sesamol and clofibric acid moieties leads to a novel potent hypolipidemic agent with antioxidant, anti-inflammatory and hepatoprotective activity” (Bioorg Med Chem Lett, 2021)
